Patent US4738971A, “N-aryl-1,2-dihydro-4-substituted-1-alkyl-2-oxo-quinoline-3-carboxamides” (priority 1981, dated 1988)

How the values were obtained:
[1] = tested on: delayed hypersensitivity reaction (pertussis vaccine pleurisy); assay: pertussis vaccine pleurisy test in rats; type: in vivo, rat (male Sprague-Dawley); conditions: 10 mg/kg p.o.; for change in vivo at 10 mg/kg: Rattus norvegicus, po, 48 h, once daily day 10 to day 13, vs control, preliminary, read-out: Enhancement of the delayed hypersensitivity reaction assessed by the exudate vol.
Excerpt: A useful test for the evaluation of the effect of chemical compounds on the immune system is the pertussis vaccine pleurisy test in rats. Compounds which enhance the response in this delayed hypersensitivity reaction are considered to stimulate cell-mediated immunity (4).
This example illustrates the effect of the compounds of the general formula I in the pertussis vaccine pleurisy test.
Pertussis vaccine pleurisy is a useful test for the evaluation of the effect of chemical compounds on the immune system. Compounds which enhance the response in this delayed hypersensitivity reaction are considered to stimulate cell-mediated immunity.
A modification of a method described in (4) was used. Male Sprague-Dawley rats weighing 250-275 g were used. At least ten animals were used in each group.
Equal volumes of Freund's incomplete adjuvant and a suspension of heat killed Bordetella pertussis organisms were mixed. To sensitize animals, day 0, 0.2 ml of a mixture containing 0.036×10^10 organisms/ml was injected into the dorsal surface of one hind paw and one forepaw.
The animals were challenged on day 12 with 0.1 ml of a mixture containing 0.25×10^10 organisms/ml that was injected intrapleurally. 48 hours after challenge, day 14, the volume of the exudate in the pleural cavity was measured.
The substances suspended in aqueous methocel solution 10 ml/kg were given intragastrically once daily from day 10 to day 13. The control groups were given methocel solution 10 ml/kg.
The effect of the substances was assessed by the exudate volume expressed in percent after comparison with the control groups.

[2] = tested on: carrageenan-induced edema; assay: carrageenan edema test in rats; type: in vivo, rat (female Sprague-Dawley); conditions: for significant potentiation of the carrageenan edema: dose within the range 10-160 mg/kg p.o.; for change in vivo at 80 mg/kg: Rattus norvegicus, po, 80 mg/kg p.o., 30 min before carrageenan, edema weight 3 h after, vs control, preliminary, read-out: Potentiation of the carrageenan edema, %
Excerpt: Another test, in which the effect of a drug corresponds to the effects obtained in the tests mentioned above, and which can therefore also be used, is the well-established carrageenan edema test in rats (5). Comparative evaluation of compounds of the present invention in the three tests mentioned has shown that compounds which increase the extent of the delayed hypersensitivity reaction in the pertussis vaccine pleurisy test and in the adjuvant arthritis test also increase the extent of carrageenan-induced edema in the carrageenan edema test, thus providing a further tool for the determination of enhancement of cell-mediated immunity.
This example illustrates the effect of the compounds of the general formula I in the carrageenan edema test in rats.
A modification of a method described in (5) was used. Female Sprague-Dawleyrats weighing 110-120 g was used. At least 10 animals were used in each experimental group. Foot edema was induced by injecting carrageenan in 0.9% NaCl into the plantar surface of the right hind paw of the rats.
The substances suspended in aqueous methocel solution 10 ml/kg were administered intragastrically 30 minutes before the injection of carrageenan. The control groups were given methocel solution 10 ml/kg.
Three hours after carrageenan injection the animals were killed. The hind feet were cut off and weighed. The difference in weight of the injected right paw and the uninjected left paw was called edema weight.
The effect of the substances was assessed by the edema weight expressed in percent after comparison with the control groups.

| SMILES | significant enhancing effect in the pertussis vaccine pleurisy test [1] | significant potentiation of the carrageenan edema [2] | change in vivo at 10 mg/kg [1] | change in vivo at 80 mg/kg [2] |
| --- | --- | --- | --- | --- |
| CCN(C(=O)c1c(OC)c2c(F)cccc2n(C)c1=O)c1ccc(OC)c(OC)c1 [21:16, N-(3,4-dimethoxyphenyl)-N-ethyl-1,2-dihydro-5-fluoro-4-methoxy-1-methyl-2-oxo-quinoline-3-carboxamide] | significant enhancing effect | potentiate significantly | – | – |
| CC(=O)Nc1ccc(NC(=O)c2c(O)c3ccccc3n(C)c2=O)cc1 [1:41, N-(4-acetylaminophenyl)-1,2-dihydro-4-hydroxy-1-methyl-2-oxo-quinoline-3-carboxamide] | significant enhancing effect | potentiate significantly | – | – |
| COc1ccc2c(c1)c(O)c(C(=O)N(C)c1ccccc1)c(=O)n2C [20:5, N-methyl-N-phenyl-1,2-dihydro-4-hydroxy-6-methoxy-1-methyl-2-oxo-quinoline-3-carboxamide] | significant enhancing effect | potentiate significantly | – | – |
| Cn1c(=O)c(C(=O)Nc2ccccc2Cl)c(O)c2ccccc21 [1:8, N-/2-chlorophenyl/-1,2-dihydro-4-hydroxy-1-methyl-2-oxo-quinoline-3-carboxamide] | – | – | 27% | 21% |
| CC(=O)Nc1ccc(N(C)C(=O)c2c(O)c3ccccc3n(C)c2=O)cc1 [20:35, N-(4-acetylaminophenyl)-N-methyl-1,2-dihydro-4-hydroxy-1-methyl-2-oxo-quinoline-3-carboxamide] | significant enhancing effect | potentiate significantly | – | – |
| CN(C(=O)c1c(O)c2cccc3c2n(c1=O)CC3)c1cnccn1 [21:20, N-methyl-N-pyrazinyl-1,2-dihydro-1,8-ethylene-4-hydroxy-2-oxo-quinoline-3-carboxamide] | significant enhancing effect | potentiate significantly | – | – |
| Cn1c(=O)c(C(=O)Nc2ccccc2)c(O)c2cc(Cl)ccc21 [1:18, N-phenyl-6-chloro-1,2-dihydro-4-hydroxy-1-methyl-2-oxo-quinoline-3-carboxamide] | – | – | – | 36% |
| CN(C(=O)c1c(O)c2c(F)cccc2n(C)c1=O)c1ccccc1 [20:16, N-methyl-N-phenyl-1,2-dihydro-5-fluoro-4-hydroxy-1-methyl-2-oxo-quinoline-3-carboxamide] | significant enhancing effect | potentiate significantly | – | – |
| O=C(Nc1cnccn1)c1c(O)c2cccc3c2n(c1=O)CC3 [14:9, N-pyrazinyl-1,2-dihydro-1,8-ethylene-4-hydroxy-2-oxo-quinoline-3-carboxamide] | – | – | – | 21% |
| CN(C(=O)c1c(O)c2ccccc2n(C)c1=O)c1nccs1 [21:21, N-methyl-N-2-thiazolyl-1,2-dihydro-4-hydroxy-1-methyl-2-oxo-quinoline-3-carboxamide] | significant enhancing effect | potentiate significantly | – | – |
| CCCn1c(=O)c(C(=O)Nc2ccccn2)c(O)c2ccccc21 [7:10, N-/2-pyridyl/-1,2-dihydro-4-hydroxy-2-oxo-1-n-propyl-quinoline-3-carboxamide] | – | – | 41% | 24% |
| COc1c(C(=O)Nc2nccs2)c(=O)n2c3c(cccc13)CC2 [16:1, N-(2-thiazolyl)-1,2-dihydro-1,8-ethylene-4-methoxy-2-oxo-quinoline-3-carboxamide] | – | potentiate significantly | – | – |
| CNc1ccc(NC(=O)c2c(O)c3ccccc3n(C)c2=O)cc1 [1:21, N-/4-methylaminophenyl/-1,2-dihydro-4-hydroxy-1-methyl-2-oxo-quinoline-3-carboxamide] | – | – | – | 22% |
| COc1c(C(=O)Nc2nccs2)c(=O)n(C)c2ccccc12 [17:1, N-(2-thiazolyl)-1,2-dihydro-4-methoxy-1-methyl-2-oxo-quinoline-3-carboxamide] | – | potentiate significantly | – | – |
| C=CCn1c(=O)c(C(=O)N(C)c2ccc(N(C)C)cc2)c(O)c2ccccc21 [20:39, N-(4-dimethylaminophenyl)-N-methyl-1-allyl-1,2-dihydro-4-hydroxy-2-oxo-quinoline-3-carboxamide] | significant enhancing effect | potentiate significantly | – | – |
| CC(C)Cn1c(=O)c(C(=O)Nc2ccccc2)c(O)c2ccccc21 [1:15, N-phenyl-1,2-dihydro-4-hydroxy-1-isobutyl-2-oxo-quinoline-3-carboxamide] | – | – | – | 30% |
| CCN(CC)c1ccc(NC(=O)c2c(O)c3ccccc3n(C)c2=O)cc1 [1:23, N-/4-diethylaminophenyl/-1,2-dihydro-4-hydroxy-1-methyl-2-oxo-quinoline-3-carboxamide] | – | – | – | 29% |
| Cn1c(=O)c(C(=O)Nc2ccc(N)cc2)c(O)c2ccccc21 [8:1, N-(4-aminophenyl)-1,2-dihydro-4-hydroxy-1-methyl-2-oxo-quinoline-3-carboxamide] | – | potentiate significantly | – | – |
| CN(C)c1ccc2c(c1)c(O)c(C(=O)Nc1ccccc1)c(=O)n2C [1:5, N-phenyl-1,2-dihydro-6-dimethylamino-4-hydroxy-1-methyl-2-oxo-quinoline-3-carboxamide] | – | – | 47% | 28% |
| Cn1c(=O)c(C(=O)Nc2ccccc2)c(N)c2ccccc21 [10:1, N-phenyl-4-amino-1,2-dihydro-1-methyl-2-oxo-quinoline-3-carboxamide] | – | – | – | 36% |
| CCOc1c(C(=O)Nc2ccc(N(C)C)cc2)c(=O)n2c3c(cccc13)CC2 [18:3, N-(4-dimethylaminophenyl)-1,2-dihydro-4-ethoxy-1,8-ethylene-2-oxo-quinoline-3-carboxamide] | – | potentiate significantly | – | – |
| COc1ccc(-n2c(=O)c(C(=O)N(C)c3ccccc3)c(O)c3ccccc32)cc1 [20:34, N-methyl-N-phenyl-1-(4-methoxyphenyl)-1,2-dihydro-4-hydroxy-2-oxo-quinoline-3-carboxamide] | significant enhancing effect | potentiate significantly | – | – |
| Cn1c(=O)c(C(=O)Nc2ccccc2)c(O)c2ccc(Cl)cc21 [1:17, N-phenyl-7-chloro-1,2-dihydro-4-hydroxy-1-methyl-2-oxo-quinoline-3-carboxamide] | – | – | – | 43% |
| CCNc1ccc(NC(=O)c2c(O)c3ccccc3n(C)c2=O)cc1 [1:45, N-(4-ethylaminophenyl)-1,2-dihydro-4-hydroxy-1-methyl-2-oxo-quinoline-3-carboxamide] | – | – | – | 47% |
| O=C(Nc1ccccc1)c1c(O)c2ccccc2n(-c2ccccc2)c1=O [1:3, N-1-diphenyl-1,2-dihydro-4-hydroxy-2-oxo-quinoline-3-carboxamide] | – | – | – | 41% |
| CCCCN(C(=O)c1c(O)c2ccccc2n(C)c1=O)c1ccccc1 [21:8, N-(n-butyl)-N-phenyl-1,2-dihydro-4-hydroxy-1-methyl-2-oxo-quinoline-3-carboxamide] | significant enhancing effect | potentiate significantly | – | – |
| COc1c(C(=O)Nc2ccccc2)c(=O)n2c3c(cccc13)CCC2 [18:2, N-phenyl-1,2-dihydro-4-methoxy-2-oxo-1,8-trimethylene-quinoline-3-carboxamide] | – | potentiate significantly | – | – |
| Cc1csc(NC(=O)c2c(O)c3cc(N(C)C)cc4c3n(c2=O)CCC4)n1 [14:7, N-(4-methyl-2-thiazolyl)-1,2-dihydro-6-dimethylamino-4-hydroxy-2-oxo-1,8-trimethylene-quinoline-3-carboxamide] | – | potentiate significantly | – | – |
